The values that follow are results of earlier work, collected in patent US20150024505A1, “APPARATUS FOR EVALUATING CARBONATE SOLUBILITY” (SAUDI ARABIAN OIL COMPANY, priority 2013, published 2015).

The conditions of the data set: in water; 10,000 psig and 300° F. required to reach this level.

For the compound `O=C=O` [CO2], the “limit of CO2 solubility” value is given as “about 150 scf/stb of water”.
